Data set [1] can be described thus: Metabolic stability test in liver S9. The format is in vitro ADME. The conditions noted are these: pH 7.4, human liver S9 2 mg protein/mL, LC/MS; for remaining at 10 min: unchanged form after 10 minutes at 37°C, read-out: Remaining rate in human liver S9 (%/10min); for remaining at 1 h: unchanged form after 60 minutes at 37°C, read-out: Remaining rate in human liver S9 (%/60min). The essentials: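 Compound from DMSO solution was incubated at 37°C with human liver S9 (final 2 mg protein/mL) in 100 mM potassium phosphate pH 7.4 with an NADPH-regenerating system for 0, 10 and 60 minutes. Reactions were stopped with acetonitrile/0.1% formic acid. Unchanged compound was measured by LC/MS as remaining rate (%) relative to zero time.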

The nature of data set [2]: Stability test in buffer (pH 7.4). The format is physicochemical. The conditions noted are these: phosphate buffer/acetonitrile 7:3, 100 mM potassium phosphate buffer (pH 7.4) and acetonitrile 7:3 (v/v), LC/MS; for remaining at 10 min: 10 minutes at 37°C, read-out: Buf. remaining rate (%/10min); for remaining at 1 h: 60 minutes at 37°C, read-out: Buf. remaining rate (%/60min). In short, it runs like this: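 Compound from DMSO solution incubated at 37°C in 100 mM potassium phosphate buffer/acetonitrile 7:3 (v/v) for 0, 10 and 60 min, then quenched with acetonitrile containing formic acid (final 0.1%). Unchanged compound in supernatant quantified by LC/MS; remaining rate (%) = amount at each time / amount at zero time × 100.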

The nature of data set [3]: Metabolic stability test in plasma. The class given is in vitro ADME, human. The conditions noted are these: LC/MS; for remaining at 10 min: unchanged form after 10 minutes at 37°C in human plasma, read-out: Remaining rate in human plasma (%/10min); for remaining at 1 h: unchanged form after 60 minutes at 37°C in human plasma, read-out: Remaining rate in human plasma (%/60min). The essentials: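 Compound in DMSO spiked into human, mouse or hamster plasma, incubated at 37°C for 0, 10 and 60 minutes, then quenched with acetonitrile/formic acid (final 0.1%). Unchanged compound in supernatant quantified by LC/MS; remaining rate (%) relative to time zero.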

For `COC(=O)c1ccc(OC(=O)CCCc2ccc(NC(=O)c3ccccc3-c3ccc(C(F)(F)F)cc3)c(C(=O)N(C)C)c2)cc1Cl` [Compound 1-18, 2-chloro-4-(4-{3-dimethylcarbamoyl-4-[(4'-trifluoromethylbiphenyl-2-carbonyl)amino]phenyl}butyryloxy)benzoic acid methyl ester], the remaining at 10 min stood at 0% in data set [1], 101% in data set [2] and 0% in data set [3]. Moreover, the remaining at 1 h in data set [1] is 0%; in data set [2], 98%; in data set [3], 0%.

On to `Cc1cccc(COC(=O)c2ccc(OC(=O)CCCc3ccc(NC(=O)c4ccccc4-c4ccc(C(F)(F)F)cc4)c(C(=O)N(C)C)c3)cc2)n1` [Compound 1-101, 4-[4-(3-dimethylcarbamoyl-4-{(4'-trifluoromethylbiphenyl-2-carbonyl)amino}phenyl)butyryloxy]benzoic acid 6-methylpyridin-2-ylmethyl ester], for which the remaining at 10 min in data set [1] turned out to be 3%; in data set [2] it was 100%; in data set [3] it was 42%. Besides, the remaining at 1 h is 0% in data set [1], 103% in data set [2] and 0% in data set [3].

Take `Cc1ccc(C(=O)Nc2ccc(CCCC(=O)Oc3ccc(C(=O)OCc4ccccc4)cc3)cc2C(=O)N(C)C)c(-c2ccc(C(F)(F)F)cc2)n1` [Compound 1-80, 4-[4-(3-dimethylcarbamoyl-4-{[6-methyl-2-(4-trifluoromethylphenyl)pyridine-3-carbonyl]amino}phenyl)butyryloxy]benzoic acid benzyl ester]: the remaining at 10 min in data set [1] came out at 5%; in data set [2], 100%; in data set [3], 4%. For the same molecule, the results for the remaining at 1 h in data set [1], in data set [2] and in data set [3] were 0%, 101% and 0%, respectively.

As for `CN(C)C(=O)c1cc(CCCC(=O)Oc2ccc(C#N)cc2)ccc1NC(=O)c1ccccc1-c1ccc(C(F)(F)F)cc1` [Compound 1-23, 4-{3-dimethylcarbamoyl-4-[(4'-trifluoromethylbiphenyl-2-carbonyl)amino]phenyl}butyric acid 4-cyanophenyl ester], the remaining at 10 min in data set [1] amounted to 0%; in data set [2], 99%; in data set [3], 21%. Further, the remaining at 1 h came out at 0% in data set [1], 99% in data set [2] and 0% in data set [3].

Consider `COC(=O)c1cc(C)c(OC(=O)CCCc2ccc(NC(=O)c3ccc(C)nc3-c3ccc(C(F)(F)F)cc3)c(C(=O)N(C)C)c2)c(Cl)c1` [Compound 1-35, 3-chloro-4-[4-(3-dimethylcarbamoyl-4-{[6-methyl-2-(4-trifluoromethylphenyl)pyridine-3-carbonyl]amino}phenyl)butyryloxy]-5-methylbenzoic acid methyl ester], for which the results for the remaining at 10 min in data set [1], in data set [2] and in data set [3] were 5%, 100% and 43%, respectively. In addition, the remaining at 1 h in data set [1] worked out at 0%; in data set [2] it was 105%; in data set [3], 0%.

Turning to `CCOC(=O)c1cc(OC)c(OC(=O)CCCc2ccc(NC(=O)c3ccc(C)nc3-c3ccc(C(F)(F)F)cc3)c(C(=O)N(C)C)c2)c(OC)c1` [Compound 1-43, 4-[4-(3-dimethylcarbamoyl-4-{[6-methyl-2-(4-trifluoromethylphenyl)pyridine-3-carbonyl]amino}phenyl)butyryloxy]-3,5-dimethoxybenzoic acid ethyl ester], the remaining at 10 min in data set [1] was 4%; in data set [2], 101%; in data set [3], 13%. The remaining at 1 h stood at 2% in data set [1], 103% in data set [2] and 0% in data set [3].

`CN(C)C(=O)c1cc(CCCC(=O)Oc2ccc(C(=O)OCC(=O)OCc3ccccc3)cc2)ccc1NC(=O)c1ccccc1-c1ccc(C(F)(F)F)cc1` [Compound 1-78, 4-[4-(3-dimethylcarbamoyl-4-{(4'-trifluoromethylbiphenyl-2-carbonyl)amino}phenyl)butyryloxy]benzoic acid benzyloxycarbonylmethyl ester]: the remaining at 10 min in data set [1] was determined as 10%; in data set [2] it was 97%; in data set [3] it was 51%. Besides, the figures for the remaining at 1 h in data set [1], in data set [2] and in data set [3] were 2%, 97% and 2%, respectively.

On to `COC(=O)c1ccc(OC(=O)CCCc2ccc(NC(=O)c3ccccc3-c3ccc(C(F)(F)F)cc3)c(C(=O)N(C)C)c2)c(F)c1` [Compound 1-10, 4-(4-{3-dimethylcarbamoyl-4-[(4'-trifluoromethylbiphenyl-2-carbonyl)amino]phenyl}butyryloxy)-3-fluoro benzoic acid methyl ester], for which the remaining at 10 min is 0% in data set [1], 101% in data set [2] and 0% in data set [3]. Further, the remaining at 1 h amounted to 0% in data set [1], 98% in data set [2] and 0% in data set [3].

With `COC(=O)c1ccc(OC(=O)CCCc2ccc(NC(=O)c3ccccc3-c3ccc(C(F)(F)F)cc3)c(C(=O)N(C)C)c2)c(C)c1` [Compound 1-66, 4-[4-(3-dimethylcarbamoyl-4-{(4'-trifluoromethylbiphenyl-2-carbonyl)amino}phenyl)butyryloxy]-3-methylbenzoic acid methyl ester], the remaining at 10 min in data set [1] was found to be 3%; in data set [2], 101%; in data set [3], 67%. Moreover, the remaining at 1 h was 0% in data set [1], 103% in data set [2] and 8% in data set [3].

Consider `CN(C)C(=O)c1cc(CCCC(=O)Oc2ccc(C(=O)OC3CCc4ccccc43)cc2)ccc1NC(=O)c1ccccc1-c1ccc(C(F)(F)F)cc1` (stereo not drawn) [Compound 1-107, 4-[4-(3-dimethylcarbamoyl-4-{(4'-trifluoromethylbiphenyl-2-carbonyl)amino}phenyl)butyryloxy]benzoic acid indan-1-yl ester], for which the remaining at 10 min came to 11% in data set [1], 98% in data set [2] and 63% in data set [3]. Moreover, the values for the remaining at 1 h in data set [1], in data set [2] and in data set [3] were 3%, 99% and 2%, respectively.

`COc1cc(C(=O)OCC(=O)N(C)C)cc(Cl)c1OC(=O)CCCc1ccc(NC(=O)c2ccc(C)nc2-c2ccc(C(F)(F)F)cc2)c(C(=O)N(C)C)c1` [Compound 1-113, 3-chloro-4-[4-(3-dimethylcarbamoyl-4-{[6-methyl-2-(4-trifluoromethylphenyl)pyridine-3-carbonyl]amino}phenyl)butyryloxy]-5-methoxybenzoic acid dimethylcarbamoylmethyl ester]: the remaining at 10 min in data set [1] turned out to be 8%; in data set [2], 103%; in data set [3], 1%. Further, the remaining at 1 h in data set [1] stood at 2%; in data set [2], 104%; in data set [3], 0%.

Regarding `CN(C)C(=O)c1cc(CCCC(=O)Oc2ccc(C(=O)OCc3ccncc3)cc2)ccc1NC(=O)c1ccccc1-c1ccc(C(F)(F)F)cc1` [Compound 1-84, 4-[4-(3-dimethylcarbamoyl-4-{(4'-trifluoromethylbiphenyl-2-carbonyl)amino}phenyl)butyryloxy]benzoic acid pyridin-4-ylmethyl ester], the remaining at 10 min was 1% in data set [1], 99% in data set [2] and 21% in data set [3]. Also, the figures for the remaining at 1 h in data set [1], in data set [2] and in data set [3] were 0%, 101% and 0%, respectively.

For the molecule `CCOc1cc(C(=O)OC)cc(OC)c1OC(=O)CCCc1ccc(NC(=O)c2ccc(C)nc2-c2ccc(C(F)(F)F)cc2)c(C(=O)N(C)C)c1` [Compound 1-49, 4-[4-(3-dimethylcarbamoyl-4-{[6-methyl-2-(4-trifluoromethylphenyl)pyridine-3-carbonyl]amino}phenyl)butyryloxy]-3-ethoxy-5-methoxybenzoic acid methyl ester], the figures for the remaining at 10 min in data set [1], in data set [2] and in data set [3] were 6%, 100% and 0%, respectively. Further, the remaining at 1 h in data set [1] was determined as 1%; in data set [2] it was 100%; in data set [3] it was 0%.

Take `COc1cc(C(=O)OC(C)C)cc(F)c1OC(=O)CCCc1ccc(NC(=O)c2ccc(C)nc2-c2ccc(C(F)(F)F)cc2)c(C(=O)N(C)C)c1` [Compound 1-38, 4-[4-(3-dimethylcarbamoyl-4-{[6-methyl-2-(4-trifluoromethylphenyl)pyridine-3-carbonyl]amino}phenyl)butyryloxy]-3-fluoro-5-methoxybenzoic acid isopropyl ester]: the remaining at 10 min is 11% in data set [1], 101% in data set [2] and 0% in data set [3]. The remaining at 1 h came out at 2% in data set [1], 102% in data set [2] and 0% in data set [3].

Source of the values: patent EP1803452A1, “ESTER DERIVATIVE AND PHARMACEUTICAL USE THEREOF” (Japan Tobacco, Inc., priority 2004, dated 2006).
